For five compounds, GI50 and TGI results are on record in PubChem BioAssay (NCI).

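Briefly, cells in 96-well plates were exposed to five compound concentrations for 48 h, and endpoints were estimated by linear interpolation. GI50: concentration for 50% inhibition of growth. The concentration for full growth arrest is given as TGI.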

Test systems include MDA-MB-435; OVCAR-4 ovarian; NCI-H23 lung; SF-539 CNS; MOLT-4 leukemia; HCC-2998 colon; T-47D breast; U251 CNS; PC-3 prostate; SK-MEL-28 melanoma.
Common to all, as to experiment: NCI-60 cell line screen, 48 h

Turning to `Cc1cc(O)ccc1C1(c2ccc(O)cc2C)OC(=O)c2ccccc21`, the GI50 in the assay with MDA-MB-435 was 15.6 µM; in the assay on OVCAR-4 ovarian, 16.4 µM; with NCI-H23 lung, 16.6 µM; with SF-539 CNS, 17.4 µM; with MOLT-4 leukemia, 23.8 µM; in the assay on HCC-2998 colon, 18.5 µM. Also, the GI50 was 20.2 µM in the assay with T-47D breast, 19.9 µM with U251 CNS, 18 µM in the assay on PC-3 prostate and 17.3 µM in the assay on SK-MEL-28 melanoma. Besides, the TGI in the assay on MDA-MB-435 was 29.7 µM; in the assay with OVCAR-4 ovarian, 30.8 µM; in the assay on NCI-H23 lung, 33.4 µM; in the assay on SF-539 CNS, 33.5 µM; in the assay with MOLT-4 leukemia, 58.9 µM; with HCC-2998 colon it was 33.9 µM. The TGI in the assay with T-47D breast turned out to be 41.3 µM; in the assay with U251 CNS, 36.6 µM; with PC-3 prostate, 35.6 µM; in the assay with SK-MEL-28 melanoma, 35.4 µM.
Turning to `COc1ccc(-c2cc(=O)c3c(OC)c4ccoc4c(/C=C/C=O)c3o2)cc1`, the GI50 in the assay on MDA-MB-435 is 2.81 µM; in the assay with OVCAR-4 ovarian it was 3.8 µM; in the assay on NCI-H23 lung, 2.8 µM; with SF-539 CNS it was 4.14 µM; in the assay with MOLT-4 leukemia, 1.84 µM; in the assay with HCC-2998 colon, 13.7 µM. The GI50 in the assay with T-47D breast is 2.03 µM; with U251 CNS it was 2.53 µM; with PC-3 prostate it was 2.58 µM; in the assay on SK-MEL-28 melanoma, 2.52 µM. Also, the TGI in the assay with MDA-MB-435 was 32.3 µM; with OVCAR-4 ovarian, more than 100 µM; in the assay with NCI-H23 lung, 13 µM; with SF-539 CNS, 19.6 µM; with MOLT-4 leukemia, 5.97 µM; with HCC-2998 colon, 27.8 µM. In addition, the TGI is more than 100 µM in the assay on T-47D breast, 10.3 µM in the assay on U251 CNS, 16.5 µM in the assay with PC-3 prostate and 7.1 µM with SK-MEL-28 melanoma.
As to `Cc1nc2ccc(-n3ncc(C(=O)c4cc5ccccc5[nH]4)c3N)cc2[nH]1`, the GI50 was 14.5 µM with MDA-MB-435; 16 µM in the assay with OVCAR-4 ovarian; 15.9 µM in the assay on NCI-H23 lung; 1.17 µM in the assay with SF-539 CNS; 5.99 µM in the assay with MOLT-4 leukemia; 14.4 µM in the assay with HCC-2998 colon. Moreover, the GI50 is 6.74 µM in the assay with T-47D breast, 1.44 µM with U251 CNS, 9.65 µM with PC-3 prostate and 8.78 µM in the assay on SK-MEL-28 melanoma. Further, the TGI was more than 100 µM with MDA-MB-435; more than 100 µM in the assay with OVCAR-4 ovarian; more than 100 µM in the assay with NCI-H23 lung; 10.9 µM in the assay with SF-539 CNS; 56.1 µM with MOLT-4 leukemia; more than 100 µM in the assay on HCC-2998 colon. Further, the TGI with T-47D breast is 45.2 µM; with U251 CNS, more than 100 µM; with PC-3 prostate, more than 100 µM; in the assay on SK-MEL-28 melanoma it was more than 100 µM.
With `O=C1/C(=C/c2ccc(Cl)cc2)CN(Cc2cn(CCCNc3ccnc4cc(Cl)ccc34)nn2)C/C1=C\c1ccc(Cl)cc1`, the GI50 in the assay on MDA-MB-435 was 1.3 µM; with OVCAR-4 ovarian, 0.5 µM; with NCI-H23 lung, 1.26 µM; in the assay with SF-539 CNS, 0.645 µM; in the assay on MOLT-4 leukemia, 0.878 µM; in the assay with HCC-2998 colon it was 0.273 µM. For the same compound, the GI50 is 1.95 µM with T-47D breast, 0.269 µM in the assay with U251 CNS, 0.391 µM with PC-3 prostate and 1.82 µM in the assay with SK-MEL-28 melanoma. Also, the TGI with MDA-MB-435 is 2.69 µM; in the assay with OVCAR-4 ovarian, 2.38 µM; in the assay on NCI-H23 lung it was 3.82 µM; with SF-539 CNS, 1.72 µM; in the assay with MOLT-4 leukemia, more than 24.5 µM; with HCC-2998 colon it was 0.712 µM. The TGI came out at 6.37 µM in the assay on T-47D breast, 0.9 µM in the assay on U251 CNS, 1.59 µM in the assay with PC-3 prostate and 3.41 µM in the assay on SK-MEL-28 melanoma.
On to `c1cc[n+](Cc2c3ccccc3cc3c2ccc2ccccc23)cc1`, for which the GI50 is 3.29 µM in the assay on MDA-MB-435; 3.57 µM with OVCAR-4 ovarian; 1.71 µM in the assay on NCI-H23 lung; 2.55 µM with SF-539 CNS; 3.26 µM in the assay with MOLT-4 leukemia; 3.38 µM in the assay on HCC-2998 colon. The GI50 is 2.34 µM with T-47D breast, 1.1 µM in the assay on U251 CNS, 2.8 µM in the assay with PC-3 prostate and 2.11 µM in the assay on SK-MEL-28 melanoma. For the same compound, the TGI in the assay on MDA-MB-435 came to 12.2 µM; in the assay with OVCAR-4 ovarian, 14.3 µM; in the assay with NCI-H23 lung it was 11.6 µM; in the assay with SF-539 CNS, 10.5 µM; with MOLT-4 leukemia, 14.7 µM; in the assay with HCC-2998 colon, 19.4 µM. The TGI with T-47D breast is 7.92 µM; with U251 CNS, 6.37 µM; in the assay with PC-3 prostate it was 14.4 µM; in the assay with SK-MEL-28 melanoma, 5.5 µM.
